Patent US20070015823A1, “Ambruticin VS compounds” (priority 2004, published 2007)
In brackets after ≈: the same amount, converted by molar mass. Read-outs that look alike come from different tables or passages of the source.

What was measured:
C. posadasii = assay: microbe, parasite or virus in culture; type: cell-based, Coccidioides posadasii; settings: 80% growth inhibition
Cryptococcus neoformans = assay: Broth microdilution antifungal susceptibility, NCCLS M38-A; settings: for MIC: Cryptococcus neoformans
S. apiospermum = assay: as above; type: cell-based, Scedosporium apiospermum; settings: for MIC: Scedosporium apiospermum
A. fumigatus ATCC 204305 = assay: as above; type: cell-based, Aspergillus fumigatus
Blastomyces dermatitidis = assay: Broth microdilution antifungal susceptibility, NCCLS M38-A; type: cell-based; settings: for MIC: Blastomyces dermatitidis
Candida parapsilosis [1] = settings: strain 92019; 95% growth inhibition
Fusarium solani = assay: Broth microdilution antifungal susceptibility, NCCLS M38-A; type: cell-based
C. immitis = assay: microbe, parasite or virus in culture; type: cell-based, Coccidioides immitis; settings: 80% growth inhibition
Histoplasma capsulatum = type: cell-based; settings: 50% growth inhibition
A. flavus ATCC 204304 = assay: Broth microdilution antifungal susceptibility, NCCLS M38-A; type: cell-based, Aspergillus flavus
Candida parapsilosis [2] = assay: microbe, parasite or virus in culture; settings: Lodderomyces parapsilosis, read-out: MIC0 C. parapsilosis 92019
[3] = minimal concentration inhibiting >95% growth, average of at least two assays (except I-l and I-x)

C[C@@H]1[C@H](O)[C@@H](C)/C=C/C=C/C=C/C=C/C=C/C=C/C=C/[C@H](O[C@@H]2O[C@H](C)[C@@H](O)[C@H](N)[C@@H]2O)C[C@@H]2O[C@](O)(C[C@@H](O)C[C@@H](O)[C@H](O)CC[C@@H](O)C[C@@H](O)CC(=O)O[C@H]1C)C[C@H](O)[C@H]2C(=O)O [Amphotericin B, reference compound]
MIC C. posadasii C735 (C. posadasii; strain C735): 1 µg/mL (≈ 1.08 µM)
MIC C. posadasii RMSCC 2127 (C. posadasii; strain RMSCC 2127): 1 µg/mL (≈ 1.08 µM)
MIC C. posadasii Silveria (C. posadasii; strain Silveria): 1 µg/mL (≈ 1.08 µM)
MIC C. neoformans 97-14 (Cryptococcus neoformans; strain 97-14, 50% growth inhibition, range = minimum and maximum of multiple assays): 0.5 to 2 µg/mL
MIC C. neoformans 11239 (Cryptococcus neoformans; strain 11239, 50% growth inhibition, range = minimum and maximum of multiple assays): 0.5 to 1 µg/mL
MIC C. neoformans 11240 (Cryptococcus neoformans; strain 11240, 50% growth inhibition, range = minimum and maximum of multiple assays): 0.5 to 1 µg/mL
MIC S. apiospermum 94-54 (S. apiospermum; strain 94-54, 50% growth inhibition, range = minimum and maximum of multiple assays): >32 µg/mL
MIC S. apiospermum 98-38 (S. apiospermum; strain 98-38, 50% growth inhibition, range = minimum and maximum of multiple assays): 4 µg/mL (≈ 4.33 µM)
MIC S. apiospermum 98-89 (S. apiospermum; strain 98-89, 50% growth inhibition, range = minimum and maximum of multiple assays): 8 µg/mL (≈ 8.66 µM)
MIC0 A. fumigatus ATCC 204305 (A. fumigatus ATCC 204305; [3]): 1.53 µg/mL
MIC C. albicans 24433 (Candida albicans; strain 24433, 50% growth inhibition, range = minimum and maximum of multiple assays): 2 to 4 µg/mL
MIC C. albicans 90028 (Candida albicans; strain 90028, 50% growth inhibition, range = minimum and maximum of multiple assays): 2 to 4 µg/mL
MIC0 C. albicans 90028 (Candida albicans; strain 90028, 95% growth inhibition): 1 µg/mL
MIC B. dermatitidis Gu (Blastomyces dermatitidis; strain Gu, 50% growth inhibition): 2 µg/mL (≈ 2.16 µM)
MIC B. dermatitidis Kr (Blastomyces dermatitidis; strain Kr, 50% growth inhibition): 1 µg/mL (≈ 1.08 µM)
MIC B. dermatitidis V (Blastomyces dermatitidis; strain V, 50% growth inhibition): 1 µg/mL (≈ 1.08 µM)
MIC0 C. parapsilosis 92019 (Candida parapsilosis [1]): 1 µg/mL
MIC F. solani 96-1 (Fusarium solani; strain 96-1, 50% growth inhibition, range = minimum and maximum of multiple assays): 1 to 2 µg/mL
MIC C. immitis RMS 2281 (C. immitis; strain RMS 2281): 1 µg/mL (≈ 1.08 µM)
MIC C. immitis RS (C. immitis; strain RS): 1 µg/mL (≈ 1.08 µM)
MIC C. immitis S46 (C. immitis; strain S46): 1 µg/mL (≈ 1.08 µM)
MIC0 C. krusei 6258 (Candida krusei; strain 6258, 95% growth inhibition): 1 µg/mL
MIC H. capsulatum G217B (Histoplasma capsulatum; strain G217B): 0.19 µg/mL (≈ 0.206 µM)
MIC H. capsulatum GS20 (Histoplasma capsulatum; strain GS20): 0.19 µg/mL (≈ 0.206 µM)
MIC0 A. flavus ATCC 204304 (A. flavus ATCC 204304; [3]): 1.67 µg/mL

CCC(C)n1ncn(-c2ccc(N3CCN(c4ccc(OCC5COC(Cn6cncn6)(c6ccc(Cl)cc6Cl)O5)cc4)CC3)cc2)c1=O (stereo not drawn) [Itraconazole, reference compound]
MIC (Cryptococcus neoformans; read-out: MIC C. neoformans 97-14): 0.125 µg/mL (≈ 0.177 µM)
MIC (Cryptococcus neoformans; read-out: MIC C. neoformans 11239): 0.031 µg/mL (≈ 0.0439 µM)
MIC (Cryptococcus neoformans; read-out: MIC C. neoformans 11240): 0.313 µg/mL (≈ 0.444 µM)
MIC (S. apiospermum; read-out: MIC S. apiospermum 98-38): 1 to 4 µg/mL (≈ 1.42 to 5.67 µM)
MIC (S. apiospermum; read-out: MIC S. apiospermum 98-89): 1 to 2 µg/mL (≈ 1.42 to 2.83 µM)
MIC (A. fumigatus ATCC 204305; Aspergillus fumigatus, ATCC204305, read-out: MIC0 A. fumigatus ATCC 204305): 0.58 µg/mL (≈ 0.822 µM)
MIC (Candida albicans; Candida albicans, read-out: MIC0 C. albicans 90028): 0.25 µg/mL (≈ 0.354 µM)
MIC (Candida parapsilosis [2]): 0.25 µg/mL (≈ 0.354 µM)
MIC (Blastomyces dermatitidis; read-out: MIC0 Blastomyces dermatitidis 04-2167): 0.03 µg/mL (≈ 0.0425 µM)
MIC (Blastomyces dermatitidis; read-out: MIC0 Blastomyces dermatitidis 04-2508): 0.03 µg/mL (≈ 0.0425 µM)
MIC (Blastomyces dermatitidis; read-out: MIC0 Blastomyces dermatitidis 04-2915): 0.06 µg/mL (≈ 0.085 µM)
MIC (Blastomyces dermatitidis; read-out: MIC0 Blastomyces dermatitidis 05-106): 0.06 µg/mL (≈ 0.085 µM)
MIC (Blastomyces dermatitidis; read-out: MIC0 Blastomyces dermatitidis 05-186): 0.06 µg/mL (≈ 0.085 µM)
MIC (Blastomyces dermatitidis; read-out: MIC0 Blastomyces dermatitidis 05-1391): 0.03 µg/mL (≈ 0.0425 µM)
MIC (Blastomyces dermatitidis; read-out: MIC0 Blastomyces dermatitidis 05-1707): ≤ 0.015 µg/mL
MIC (Blastomyces dermatitidis; read-out: MIC0 Blastomyces dermatitidis 05-1820): ≤ 0.015 µg/mL
MIC (Blastomyces dermatitidis; read-out: MIC0 Blastomyces dermatitidis 05-1829): 0.06 µg/mL (≈ 0.085 µM)
MIC (Blastomyces dermatitidis; read-out: MIC0 Blastomyces dermatitidis 05-2020): ≤ 0.015 µg/mL
MIC (Blastomyces dermatitidis; read-out: MIC0 Blastomyces dermatitidis R-3529): ≤ 0.015 µg/mL
MIC (Blastomyces dermatitidis; read-out: MIC0 Blastomyces dermatitidis R-35629): ≤ 0.015 µg/mL
MIC (Fusarium solani; Fusarium solani, read-out: MIC F. solani 96-1): > 4 µg/mL
MIC (Candida krusei; Pichia kudriavzevii, read-out: MIC0 C. krusei 6258): 0.25 µg/mL (≈ 0.354 µM)
MIC (A. flavus ATCC 204304; Aspergillus flavus, ATCC204304, read-out: MIC0 A. flavus ATCC 204304): 0.47 µg/mL (≈ 0.666 µM)
